Test results taken from ChEMBL document CHEMBL5728770, “Heterocycle comprising tyrosine kinase inhibitors” (2021).

Target: Tyrosine-protein kinase BTK (Homo sapiens, UniProt Q06187)
Assay: Enzymatic Activity Assay: A Caliper-based kinase assay (Caliper Life Sciences, Hopkinton, Mass.) was used to measure inhibition of BTK kinase activity of a compound of the present disclosure. Serial dilutions of test compounds were incubated with human recombinant BTK (0.5 nM), ATP (16 μM) and a phosphoacceptor peptide substrate FAM-GEEPLYWSFPAKKK-NH2 (1 μM) at room temperature for 3 h. The reaction was then terminated with EDTA, final concentration 20 mM and the phosphorylated reaction product was quantified on a Caliper Desktop Profiler (Caliper LabChip 3000). Percent inhibition was calculated for each compound dilution and the concentration that produced 50% inhibition was calculated.

Tyrosine-protein kinase BTK, sequence (Q06187 whole entry): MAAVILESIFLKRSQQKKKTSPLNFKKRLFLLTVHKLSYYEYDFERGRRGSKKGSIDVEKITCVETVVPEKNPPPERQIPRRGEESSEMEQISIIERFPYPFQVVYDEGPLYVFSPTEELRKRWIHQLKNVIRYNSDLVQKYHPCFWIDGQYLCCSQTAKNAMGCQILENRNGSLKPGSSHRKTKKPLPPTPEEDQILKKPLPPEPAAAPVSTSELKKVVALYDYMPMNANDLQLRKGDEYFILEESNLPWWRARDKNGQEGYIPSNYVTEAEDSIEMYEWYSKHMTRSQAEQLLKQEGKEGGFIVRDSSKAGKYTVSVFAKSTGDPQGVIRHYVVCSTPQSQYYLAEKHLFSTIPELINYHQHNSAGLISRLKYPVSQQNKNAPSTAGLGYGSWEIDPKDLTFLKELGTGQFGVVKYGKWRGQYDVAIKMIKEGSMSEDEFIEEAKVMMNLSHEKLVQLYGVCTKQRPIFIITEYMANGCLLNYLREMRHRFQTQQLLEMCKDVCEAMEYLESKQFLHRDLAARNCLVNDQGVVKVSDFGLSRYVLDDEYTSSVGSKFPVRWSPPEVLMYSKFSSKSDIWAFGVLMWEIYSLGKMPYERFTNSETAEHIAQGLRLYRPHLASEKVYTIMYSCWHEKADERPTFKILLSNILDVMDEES

Compound | IC50 [nM]
CN1CCN(C(C)(C)C=C(C#N)C(=O)N2CCC[C@@H](c3nc(-c4ccc(Oc5ccccc5)cc4F)c4c(N)nccn34)C2)CC1=O | 2.6
Cc1cc(-c2nn([C@@H]3CCCN(C(=O)C(C#N)=CC(C)(C)N4CCN(C5COC5)CC4)C3)c3ccnc(N)c23)ccc1Oc1ccccc1 | 1.3
CC(C)(C=C(C#N)C(=O)N1CCC[C@@H](n2nc(-c3ccc(C(=O)Nc4ccccn4)cc3)c3c(N)nccc32)C1)N1CCN(C2COC2)CC1 | 2.2
CC(C)(C=C(C#N)C(=O)N1CCC[C@@H](n2nc(-c3ccc(Oc4ccccc4F)cc3)c3c(N)nccc32)C1)N1CCN(C2COC2)CC1 | 2.2
CC(C)(C=C(C#N)C(=O)N1CCC[C@@H](n2nc(-c3ccc(Oc4ccccc4)cc3F)c3c(N)nccc32)C1)N1CCN(C2COC2)CC1 | 1.4
CC(C)(C=C(C#N)C(=O)N1CCC[C@@H](n2nc(-c3ccc(Oc4ccccc4)cc3F)c3c(N)nccc32)C1)C1(C)CCN(C2COC2)CC1 | 45.7
CC(C)(C=C(C#N)C(=O)N1CCC[C@@H](n2nc(-c3ccc(Oc4ccccc4)cc3F)c3c(N)nccc32)C1)N1CCN(C2(C)COC2)CC1 | 0.8
CC(C)(C=C(C#N)C(=O)N1CCC[C@@H](n2nc(-c3ccc(Oc4ccccc4)cc3F)c3c(N)ncnc32)C1)N1CCN(C2(C)COC2)CC1 | 0.3
CC(C)(C=C(C#N)C(=O)N1CCC[C@@H](c2nc(-c3ccc(Oc4ccccc4)cc3F)c3c(N)nccn23)C1)N1CCN(C2(C)COC2)CC1 | 2.4
